# Molecular target: T1, Protein farnesyltransferase (Homo sapiens, UniProt P49354+P49356)
# Assay: Inhibition of FTase-catalyzed incorporation of [3H]- FPP radioligand into recombinant Ha-Ras by 50% at an enzyme concentration of 1 nM.
# Type: protein-complex assay
row,IC50 [nM],SMILES
1,6.2,CCC(C)[C@@H](CN(CC(=O)N[C@@H](CCSC)C(=O)O)Cc1cccc2ccccc12)NC(=O)CSCc1ccc([N+](=O)[O-])cc1 (some centres not stated)
2,120,CCC(C)[C@@H](CN(CC(=O)N[C@@H](CCSC)C(=O)O)Cc1cccc2ccccc12)NC(=O)CSCCc1ccccc1 (some centres not stated)
3,29,CCC(C)[C@@H](CN(CC(=O)N[C@@H](CCSC)C(=O)O)Cc1cccc2ccccc12)NC(=O)CSCc1ccc(-c2ccccc2)cc1 (some centres not stated)
4,86,CCC(C)[C@@H](CN(CC(=O)N[C@@H](CCSC)C(=O)O)Cc1cccc2ccccc12)NC(=O)CSCc1ccccc1[N+](=O)[O-] (some centres not stated)
5,16,CCC(C)[C@@H](CN(CC(=O)N[C@@H](CCSC)C(=O)O)Cc1cccc2ccccc12)NC(=O)CSCc1ccc(S(C)(=O)=O)cc1 (some centres not stated)
6,17,CCC(C)[C@@H](CN(CC(=O)N[C@@H](CCSC)C(=O)O)Cc1cccc2ccccc12)NC(=O)CSCc1ccc(OC)cc1 (some centres not stated)
7,230,CCC(C)[C@@H](CN(CC(=O)N[C@@H](CCSC)C(=O)O)Cc1cccc2ccccc12)NC(=O)CSCc1ccncc1 (some centres not stated)
8,37,CCC(C)[C@@H](CN(CC(=O)N[C@@H](CCSC)C(=O)O)Cc1cccc2ccccc12)NC(=O)CSCc1ccc(C(F)(F)F)cc1 (some centres not stated)
9,5.4,CCC(C)[C@@H](CN(CC(=O)N[C@@H](CCSC)C(=O)O)Cc1cccc2ccccc12)NC(=O)CSCc1ccc(C#N)cc1 (some centres not stated)
10,36,CCC(C)[C@@H](CN(CC(=O)N[C@@H](CCSC)C(=O)O)Cc1cccc2ccccc12)NC(=O)CSCc1ccccc1 (some centres not stated)
11,23,CCC(C)[C@@H](CN(CC(=O)N[C@@H](CCSC)C(=O)O)Cc1cccc2ccccc12)NC(=O)CSCc1cccc([N+](=O)[O-])c1 (some centres not stated)
12,14,CCC(C)[C@@H](CN(CC(=O)N[C@@H](CCSC)C(=O)O)Cc1cccc2ccccc12)NC(=O)CSCc1ccc(C)cc1 (some centres not stated)

# Continued, compound first:
row,SMILES,IC50 [nM]
1,CCC(C)[C@@H](CN(CC(=O)N[C@@H](CCSC)C(=O)O)Cc1cccc2ccccc12)NC(=O)CCCc1ccc([N+](=O)[O-])cc1 (some centres not stated),19
2,CCC(C)[C@@H](CN(CC(=O)N[C@@H](CCSC)C(=O)O)Cc1cccc2ccccc12)NC(=O)CN(Cc1ccccc1)C(C)=O (some centres not stated),70
3,CCC(C)[C@@H](CN(CC(=O)N[C@@H](CCSC)C(=O)O)Cc1ccccc1)NC(=O)CSc1nc2ccccc2[nH]1 (some centres not stated),> 10000
4,CCC(C)[C@@H](CN(CC(=O)N[C@@H](CCSC)C(=O)O)Cc1cccc2ccccc12)NC(=O)CNCc1ccccc1 (some centres not stated),190
5,CCC(C)[C@@H](CN(CC(=O)N[C@@H](CCSC)C(=O)O)Cc1ccccc1)NC(=O)CSc1nc[nH]n1 (some centres not stated),> 10000
6,CCC(C)[C@@H](CN(CC(=O)N[C@@H](CCSC)C(=O)O)Cc1cccc2ccccc12)NC(=O)CN(Cc1ccccc1)C(=O)OC(C)(C)C (some centres not stated),260
7,CCC(C)[C@@H](CN(CC(=O)N[C@@H](CCSC)C(=O)O)Cc1cccc2ccccc12)NC(=O)C[S+]([O-])Cc1ccccc1 (some centres not stated),160
8,CCC(C)[C@@H](CN(CC(=O)N[C@@H](CCSC)C(=O)O)Cc1cccc2ccccc12)NC(=O)CCCCc1ccccc1 (some centres not stated),230
9,CCC(C)[C@@H](CN(CC(=O)N[C@@H](CCSC)C(=O)O)Cc1cccc2ccccc12)NC(=O)CS(=O)(=O)Cc1ccccc1 (some centres not stated),310
10,CCC(C)[C@@H](CN(CC(=O)N[C@@H](CCSC)C(=O)O)Cc1cccc2ccccc12)NC(=O)COCc1ccccc1 (some centres not stated),230
11,CCC(C)[C@@H](CN(CC(=O)N[C@@H](CCSC)C(=O)O)Cc1cccc2ccccc12)NC(=O)CSc1ccccc1 (some centres not stated),51
12,CCC(C)[C@@H](CN(CC(=O)N[C@@H](CCSC)C(=O)O)Cc1cccc2ccccc12)NC(=O)CSc1ccncc1 (some centres not stated),17
13,CCC(C)[C@@H](CN(CC(=O)N[C@@H](CCSC)C(=O)O)Cc1ccccc1)NC(=O)CSc1nnc(N)s1 (some centres not stated),> 10000
14,CCC(C)[C@@H](CN(CC(=O)N[C@@H](CCSC)C(=O)O)Cc1cccc2ccccc12)NCc1cnc[nH]1 (some centres not stated),31

# Molecular target: T1, Protein farnesyltransferase
# Assay: Inhibition of [3H]- FPP incorporation into recombinant Ha-Ras by farnesyl transferase at 10 pM
# Type: protein-complex assay
row,IC50 [nM],SMILES
1,0.123,CCC(C)[C@@H](CN(CC(=O)N[C@@H](CCSC)C(=O)O)Cc1cccc2ccccc12)NC[C@@H](N)CS (some centres not stated)

# — ChEMBL document CHEMBL1130684, “Potent, non-thiol inhibitors of farnesyltransferase” (Bioorg Med Chem Lett, 1998)
